Biological target: T1, Nav1.7 (or SCN9A) channel (Homo sapiens, UniProt Q15858)
T1 construct: expressed in transfected cells
Assay: Nav1.7 PatchXpress 7000 automated electrophysiology assay (HEK cells stably expressing hSCN9A)
Assay type: cell-based
Details: voltage-clamped at V1/2 of inactivation, read-out: Nav1.7 EIC50
Summary of the method: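 Automated whole-cell clamp (PatchXpress) of HEK cells stably expressing hSCN9A, at 22-24 °C, in extracellular buffer at pH 7.4. Cells were held at the measured V1/2 of inactivation, then stepped to 0 mV for 20 ms. Single-concentration % inhibition gave EIC50 = concentration × (100 − %inhibition)/%inhibition, excluding <20% or >80%.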

T1 sequence (Q15858 whole entry): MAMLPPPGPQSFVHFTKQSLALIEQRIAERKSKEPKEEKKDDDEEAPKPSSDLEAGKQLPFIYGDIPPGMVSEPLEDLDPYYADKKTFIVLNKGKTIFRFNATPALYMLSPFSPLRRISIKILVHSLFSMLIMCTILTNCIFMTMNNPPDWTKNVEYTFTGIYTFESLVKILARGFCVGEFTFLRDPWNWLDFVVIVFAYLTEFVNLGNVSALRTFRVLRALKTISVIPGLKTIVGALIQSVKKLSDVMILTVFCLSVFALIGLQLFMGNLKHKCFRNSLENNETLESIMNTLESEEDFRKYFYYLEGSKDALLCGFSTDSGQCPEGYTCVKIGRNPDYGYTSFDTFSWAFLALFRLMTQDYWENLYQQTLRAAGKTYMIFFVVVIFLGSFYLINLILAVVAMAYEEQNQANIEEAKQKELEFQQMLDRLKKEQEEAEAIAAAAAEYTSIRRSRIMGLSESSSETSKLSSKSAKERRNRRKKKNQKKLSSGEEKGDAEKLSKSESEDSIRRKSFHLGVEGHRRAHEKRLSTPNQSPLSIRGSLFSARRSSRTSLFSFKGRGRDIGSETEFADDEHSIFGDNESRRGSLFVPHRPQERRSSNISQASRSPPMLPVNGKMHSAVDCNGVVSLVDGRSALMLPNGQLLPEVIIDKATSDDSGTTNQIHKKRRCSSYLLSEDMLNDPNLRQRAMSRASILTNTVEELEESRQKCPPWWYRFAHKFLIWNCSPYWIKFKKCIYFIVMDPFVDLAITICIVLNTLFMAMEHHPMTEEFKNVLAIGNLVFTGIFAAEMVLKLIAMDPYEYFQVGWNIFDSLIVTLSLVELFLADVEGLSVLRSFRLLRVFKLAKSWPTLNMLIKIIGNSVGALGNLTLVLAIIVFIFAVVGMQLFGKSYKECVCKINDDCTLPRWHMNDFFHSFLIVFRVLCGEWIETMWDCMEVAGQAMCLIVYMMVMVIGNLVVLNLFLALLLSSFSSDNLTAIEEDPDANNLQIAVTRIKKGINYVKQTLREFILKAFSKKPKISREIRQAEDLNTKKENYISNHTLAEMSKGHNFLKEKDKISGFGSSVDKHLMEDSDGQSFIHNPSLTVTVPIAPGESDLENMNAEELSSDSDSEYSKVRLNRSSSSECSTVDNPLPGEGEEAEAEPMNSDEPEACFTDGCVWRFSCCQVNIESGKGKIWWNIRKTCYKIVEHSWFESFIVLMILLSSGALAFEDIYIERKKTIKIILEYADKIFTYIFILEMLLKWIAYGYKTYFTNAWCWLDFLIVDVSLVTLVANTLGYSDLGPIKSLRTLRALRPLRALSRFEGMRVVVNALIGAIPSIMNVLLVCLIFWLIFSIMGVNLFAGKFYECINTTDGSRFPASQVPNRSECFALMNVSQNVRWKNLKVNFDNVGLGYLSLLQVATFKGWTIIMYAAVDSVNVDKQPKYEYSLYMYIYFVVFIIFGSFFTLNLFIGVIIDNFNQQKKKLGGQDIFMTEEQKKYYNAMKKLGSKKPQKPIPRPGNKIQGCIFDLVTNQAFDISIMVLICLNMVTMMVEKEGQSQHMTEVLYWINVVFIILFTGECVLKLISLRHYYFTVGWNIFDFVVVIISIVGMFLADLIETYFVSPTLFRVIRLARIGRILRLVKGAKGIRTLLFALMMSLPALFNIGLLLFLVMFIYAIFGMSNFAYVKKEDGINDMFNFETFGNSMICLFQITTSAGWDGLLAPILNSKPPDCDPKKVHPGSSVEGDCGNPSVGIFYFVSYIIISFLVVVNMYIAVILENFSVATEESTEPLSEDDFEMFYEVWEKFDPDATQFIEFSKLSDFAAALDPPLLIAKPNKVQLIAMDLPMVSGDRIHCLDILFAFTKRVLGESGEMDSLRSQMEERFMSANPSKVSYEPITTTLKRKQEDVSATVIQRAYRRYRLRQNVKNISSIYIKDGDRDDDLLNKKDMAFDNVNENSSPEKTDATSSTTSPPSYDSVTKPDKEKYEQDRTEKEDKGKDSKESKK

| Compound | IC50 [nM] |
| --- | --- |
| Cc1ccc(Oc2cc(F)c(C(=O)NS(C)(=O)=O)cc2F)cc1C [Example 141, 4-(3,4-dimethylphenoxy)-2,5-difluoro-N-(methylsulfonyl)benzamide] | 2500 |
| COc1cc(Oc2ccc(Cl)cc2OC(F)(F)F)ccc1C(=O)NS(C)(=O)=O [Example 39, 4-[4-chloro-2-(trifluoromethoxy)phenoxy]-2-methoxy-N-(methylsulfonyl)benzamide] | 9300 |
| CS(=O)(=O)NC(=O)c1cc(Cl)c(Oc2cccc3ccccc23)cc1F [Example 287, 5-chloro-2-fluoro-N-(methylsulfonyl)-4-(1-naphthyloxy)benzamide] | 2100 |
| CS(=O)(=O)NC(=O)c1cc(Cl)c(Oc2ccc(Cl)c(Cl)c2)cc1F [Example 2, 5-Chloro-4-(3,4-dichlorophenoxy)-2-fluoro-N-(methylsulfonyl)benzamide] | 64 |
| COc1cc(F)cc(Oc2cc(F)c(C(=O)NS(C)(=O)=O)cc2F)c1 [Example 92, 2,5-difluoro-4-(3-fluoro-5-methoxyphenoxy)-N-(methylsulfonyl)benzamide] | > 3000 |
| CS(=O)(=O)NC(=O)c1ccc(Oc2ccccc2F)c(Cl)c1 [Example 282, 3-chloro-4-(2-fluorophenoxy)-N-(methylsulfonyl)benzamide] | 1200 |
| Cc1ccc(F)c(Oc2ccc(C(=O)NS(C)(=O)=O)cc2)c1 [Example 205, 4-(2-fluoro-5-methylphenoxy)-N-(methylsulfonyl)benzamide] | 15000 |
| CS(=O)(=O)NC(=O)c1ccc(Oc2ccccc2Cl)c(Cl)c1 [Example 248, 3-chloro-4-(2-chlorophenoxy)-N-(methylsulfonyl)benzamide] | 1700 |
| CS(=O)(=O)NC(=O)c1cc(F)c(Oc2ccc(F)cc2Cl)cc1F [Example 120, 4-(2-chloro-4-fluorophenoxy)-2,5-difluoro-N-(methylsulfonyl)benzamide] | > 3000 |
| Cc1cc(C#N)cc(C)c1Oc1cc(F)c(C(=O)NS(C)(=O)=O)cc1F [Example 132, 4-(4-cyano-2,6-dimethylphenoxy)-2,5-difluoro-N-(methylsulfonyl)benzamide] | > 3000 |
| CCc1cc(Cl)ccc1Oc1cc(F)c(C(=O)NS(C)(=O)=O)cc1F [Example 3, 4-(4-Chloro-2-ethylphenoxy)-2,5-difluoro-N-(methylsulfonyl)benzamide] | 1700 |
| COc1ccc(Oc2ccc(C(=O)NS(C)(=O)=O)cc2Cl)cc1 [Example 257, 3-chloro-4-(4-methoxyphenoxy)-N-(methylsulfonyl)benzamide] | 1100 |
| CS(=O)(=O)NC(=O)c1ccc(Oc2ccc(-c3ccccc3)cc2)c(C#N)c1 [Example 280, 4-(biphenyl-4-yloxy)-3-cyano-N-(methylsulfonyl)benzamide] | 430 |
| CS(=O)(=O)NC(=O)c1ccc(Oc2ccc(Cl)c(C(F)(F)F)c2)c(Cl)c1F [Example 320, 3-chloro-4-(4-chloro-3-(trifluoromethyl)phenoxy)-2-fluoro-N-(methylsulfonyl)benzamide] | 1800 |
| CS(=O)(=O)NC(=O)c1cc(F)c(Oc2cc(F)ccc2F)cc1F [Example 89, 4-(2,5-difluorophenoxy)-2,5-difluoro-N-(methylsulfonyl)benzamide] | > 3000 |
| CS(=O)(=O)NC(=O)c1ccc(Oc2ccc(-n3ccnc3)cc2)cc1 [Example 311, 4-[4-(1H-imidazol-1-yl)phenoxy]-N-(methylsulfonyl)benzamide] | > 3000 |
| CS(=O)(=O)NC(=O)c1ccc(Oc2ccc(Cl)c(C(F)(F)F)c2)c(F)c1 [Example 42, 4-[4-chloro-3-(trifluoromethyl)phenoxy]-3-fluoro-N-(methylsulfonyl)benzamide] | 590 |
| CCc1cc(F)ccc1Oc1ccc(C(=O)NS(C)(=O)=O)cc1F [Example 20, 4-(2-ethyl-4-fluorophenoxy)-3-fluoro-N-(methylsulfonyl)benzamide] | 5400 |
| CS(=O)(=O)NC(=O)c1cc(F)c(Oc2cccc(Cl)c2)cc1F [Example 156, 4-(3-chlorophenoxy)-2,5-difluoro-N-(methylsulfonyl)benzamide] | > 3000 |
| CS(=O)(=O)NC(=O)c1ccc(Oc2ccc3ccccc3c2)c(Cl)c1 [Example 246, 3-chloro-N-(methylsulfonyl)-4-(2-naphthyloxy)benzamide] | 490 |
| Cc1cc(F)ccc1Oc1cc(F)c(C(=O)NS(C)(=O)=O)cc1F [Example 154, 2,5-difluoro-4-(4-fluoro-2-methylphenoxy)-N-(methylsulfonyl)benzamide] | > 3000 |
| CC(C)c1ccc(Oc2ccc(C(=O)NS(C)(=O)=O)cc2)cc1 [Example 173, 4-(4-isopropylphenoxy)-N-(methylsulfonyl)benzamide] | 1200 |
| CS(=O)(=O)NC(=O)c1ccc(Oc2cc(F)cc(F)c2)cc1 [Example 192, 4-(3,5-difluorophenoxy)-N-(methylsulfonyl)benzamide] | 14000 |
| CS(=O)(=O)NC(=O)c1cc(Cl)c(Oc2ccc3ccccc3c2)cc1F [Example 285, 5-chloro-2-fluoro-N-(methylsulfonyl)-4-(2-naphthyloxy)benzamide] | 57 |
| CS(=O)(=O)NC(=O)c1cc(F)c(Oc2ccc(F)cc2)cc1F [Example 131, 2,5-difluoro-4-(4-fluorophenoxy)-N-(methylsulfonyl)benzamide] | 3800 |
| CS(=O)(=O)NC(=O)c1cc(Cl)c(Oc2ccc(Cl)c(OC(F)F)c2)cc1F [Example 48, 5-chloro-4-[4-chloro-3-(difluoromethoxy)phenoxy]-2-fluoro-N-(methylsulfonyl)benzamide] | 210 |
| CS(=O)(=O)NC(=O)c1cc(F)c(Oc2c(F)cccc2Cl)cc1F [Example 91, 4-(2-chloro-6-fluorophenoxy)-2,5-difluoro-N-(methylsulfonyl)benzamide] | > 3000 |
| COc1cc(Cl)ccc1Oc1cc(F)c(C(=O)NS(C)(=O)=O)cc1F [Example 47, 4-(4-chloro-2-methoxyphenoxy)-2,5-difluoro-N-(methylsulfonyl)benzamide] | 4000 |

More lines, now with the values ahead:

| IC50 [nM] | Compound |
| --- | --- |
| 25 | CS(=O)(=O)NC(=O)c1cc(Cl)c(Oc2ccc(OC(F)(F)F)c(Cl)c2)cc1F [Example 7, 5-chloro-4-[3-chloro-4-(trifluoromethoxy)phenoxy]-2-fluoro-N-(methylsulfonyl)benzamide] |
| > 1000 | CS(=O)(=O)NC(=O)c1cc(F)c(Oc2cc(C(F)(F)F)ccc2Cl)cc1F [Example 121, 4-[2-chloro-5-(trifluoromethyl)phenoxy]-2,5-difluoro-N-(methylsulfonyl)benzamide] |
| 21000 | CC(C)c1ccccc1Oc1ccc(C(=O)NS(C)(=O)=O)cc1 [Example 169, 4-(2-isopropylphenoxy)-N-(methylsulfonyl)benzamide] |
| 2400 | CS(=O)(=O)NC(=O)c1ccc(Oc2cccc(Cl)c2)c(F)c1 [Example 223, 4-(3-chlorophenoxy)-3-fluoro-N-(methylsulfonyl)benzamide] |
| 28000 | Cc1ccc(C)c(Oc2ccc(C(=O)NS(C)(=O)=O)cc2)c1 [Example 162, 4-(2,5-dimethylphenoxy)-N-(methylsulfonyl)benzamide] |
| 16000 | Cc1ccc(Oc2ccc(C(=O)NS(C)(=O)=O)cc2)c(C)c1 [Example 172, 4-(2,4-dimethylphenoxy)-N-(methylsulfonyl)benzamide] |
| 850 | CS(=O)(=O)NC(=O)c1ccc(Oc2ccc(Cl)c(C(F)(F)F)c2)cc1F [Example 14, 4-(4-chloro-3-(trifluoromethyl)phenoxy)-2-fluoro-N-(methylsulfonyl)benzamide] |
| > 3000 | Cn1nccc1-c1cc(Cl)ccc1Oc1cc(F)c(C(=O)NS(C)(=O)=O)cc1Cl [Example 80, 5-chloro-4-[4-chloro-2-(1-methyl-1H-pyrazol-5-yl)phenoxy]-2-fluoro-N-(methylsulfonyl)benzamide] |
| 3400 | CCS(=O)(=O)NC(=O)c1ccc(Oc2ccc(Cl)cc2)cc1 [Example 23, 4-(4-chlorophenoxy)-N-(ethylsulfonyl)benzamide] |
| 760 | CS(=O)(=O)NC(=O)c1ccc(Oc2cccc(OC(F)(F)F)c2)cc1 [Example 30, N-(methylsulfonyl)-4-[3-(trifluoromethoxy)phenoxy]benzamide] |
| 6800 | Cc1cccc(Oc2cc(F)c(C(=O)NS(C)(=O)=O)cc2F)c1 [Example 157, 2,5-difluoro-4-(3-methylphenoxy)-N-(methylsulfonyl)benzamide] |
| 260 | CS(=O)(=O)NC(=O)c1cc(Cl)c(Oc2ccc(OC(F)F)c(Cl)c2)cc1F [Example 51, 5-chloro-4-[3-chloro-4-(difluoromethoxy)phenoxy]-2-fluoro-N-(methylsulfonyl)benzamide] |
| 6400 | CCS(=O)(=O)NC(=O)c1ccc(Oc2ccc(F)cc2)cc1 [Example 305, N-(ethylsulfonyl)-4-(4-fluorophenoxy)benzamide] |
| 3400 | CS(=O)(=O)NC(=O)c1cc(Cl)c(Oc2ccc(C#N)cc2)cc1F [Example 286, 5-chloro-4-(4-cyanophenoxy)-2-fluoro-N-(methylsulfonyl)benzamide] |
| 490 | CS(=O)(=O)NC(=O)c1cc(F)c(Oc2cccc(OC(F)(F)F)c2)cc1F [Example 124, 2,5-difluoro-N-(methylsulfonyl)-4-[3-(trifluoromethoxy)phenoxy]benzamide] |
| 25000 | Cc1ccc(Oc2ccc(C(=O)NS(C)(=O)=O)cc2)c(Cl)c1 [Example 203, 4-(2-chloro-4-methylphenoxy)-N-(methylsulfonyl)benzamide] |
| > 3000 | COc1cc(Oc2cccc(Cl)c2)ccc1C(=O)NS(C)(=O)=O [Example 213, 4-(3-chlorophenoxy)-2-methoxy-N-(methylsulfonyl)benzamide] |
| 2500 | Cc1cc(C(=O)NS(C)(=O)=O)ccc1Oc1ccc(F)cc1 [Example 237, 4-(4-fluorophenoxy)-3-methyl-N-(methylsulfonyl)benzamide] |

Source: patent US8685977B2, “Chemical compounds” (Pfizer Limited, priority 2010, dated 2014)
